ChEMBL document CHEMBL1201862, “PubChem BioAssay data set” (2004)
Values belong to the compound of their own block, whether it stands above or below them. The source made the active and inactive calls.

How the values were obtained:
HeLa = test: HeLa cell cytotoxicity, dose response, cytotoxicity control, 24 h, cherry-picked samples (AID 504726); type: functional, cell-based; conditions: Homo sapiens;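 note: potency for cytotoxicity as loss of luminescence signal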
HEK293 [1] = test: PMA/Ionomycin induced NF-kB luciferase assay in 293- NF-kB-Luc stable cells. [Related pubchem assays: 1299, 1270, 1295, 1375, 1287, 1281, 1293, 1291, 1289, 1280, 465, 1364, 1282, 1372, 1365, 1370, 1367, 1366, 1269, 1373, 1292, 1290, 1302, 1371, 1283, 1271, 1294, 1374, 1368, 1369 ]; type: functional, cell-based; conditions: Homo sapiens
[2] = molecular target: Luciferin 4-monooxygenase (Photinus pyralis, UniProt P08659); test: In vitro luciferase assay using purified luciferase. [Related pubchem assays: 1299, 1270, 1295, 1375, 1287, 1281, 1293, 1291, 1289, 1280, 465, 1364, 1282, 1372, 1365, 1370, 1367, 1366, 1266, 1373, 1292, 1290, 1302, 1371, 1283, 1271, 1294, 1374, 1368, 1369 ]
Luciferin 4-monooxygenase, sequence (P08659 whole entry): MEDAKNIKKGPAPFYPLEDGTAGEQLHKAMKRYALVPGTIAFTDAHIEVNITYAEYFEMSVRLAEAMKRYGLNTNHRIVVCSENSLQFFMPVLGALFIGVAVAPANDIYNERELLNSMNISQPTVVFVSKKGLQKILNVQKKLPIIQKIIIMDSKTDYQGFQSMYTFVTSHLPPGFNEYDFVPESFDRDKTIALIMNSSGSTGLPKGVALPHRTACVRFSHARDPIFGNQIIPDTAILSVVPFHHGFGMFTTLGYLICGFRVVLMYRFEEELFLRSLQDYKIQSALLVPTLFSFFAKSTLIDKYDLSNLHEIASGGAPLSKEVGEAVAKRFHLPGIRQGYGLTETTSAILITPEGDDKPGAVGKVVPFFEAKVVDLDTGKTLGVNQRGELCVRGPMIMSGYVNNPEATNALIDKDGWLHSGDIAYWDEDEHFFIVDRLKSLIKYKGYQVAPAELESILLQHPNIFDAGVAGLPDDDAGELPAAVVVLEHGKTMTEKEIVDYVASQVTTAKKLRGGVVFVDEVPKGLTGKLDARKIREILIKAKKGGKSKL

HEK293 [3] = test: PMA/Ionomycin-induced IL-8 production in HEK293- NF-kB-Luc stable cells. [Related pubchem assays: 1299, 1295, 1375, 1287, 1281, 1293, 1291, 1289, 1280, 465, 1364, 1282, 1372, 1365, 1367, 1366, 1266, 1269, 1373, 1292, 1290, 1302, 1371, 1283, 1271, 1294, 1374, 1368, 1369 ]; type: functional, cell-based; conditions: Homo sapiens
HEK293 [4] = test: Cytotoxicity assay in HEK293 cells. [Related pubchem assays (depositor defined):AID1266, AID1269, AID1270, AID1271, AID1280, AID1281, AID1282, AID1283, AID1287, AID1289, AID1290, AID1291, AID1292, AID1293, AID1294, AID1295, AID1299, AID1302, AID1364, AID1365, AID1366, AID1367, AID1369, AID1370, AID1371, AID1372, AID1373, AID1374, AID1375, AID1384 …; type: functional, cell-based; conditions: Homo sapiens
HEK293 [5] = test: TNF Induced NF-kB Luciferase in 293-NF-kB-Luc Stable Cells. [Related pubchem assays: 1266, 1299, 1269, 1373, 1292, 1290, 1302, 1371, 1283, 1270, 1295, 1271, 1375, 1294, 1374, 1281, 1293, 1291, 1289, 1280, 465, 1368, 1364, 1282, 1372, 1365, 1369, 1370, 1367, 1366 ]; type: functional, cell-based; conditions: Homo sapiens
[6] = molecular target: Lysosomal acid glucosylceramidase (Homo sapiens, UniProt P04062); test: Dose response cell-based high throughput screening assay to identify enhancers of beta-glucosidase activity. [Related pubchem assays: 784 ]; type: functional
Lysosomal acid glucosylceramidase, sequence (P04062 whole entry): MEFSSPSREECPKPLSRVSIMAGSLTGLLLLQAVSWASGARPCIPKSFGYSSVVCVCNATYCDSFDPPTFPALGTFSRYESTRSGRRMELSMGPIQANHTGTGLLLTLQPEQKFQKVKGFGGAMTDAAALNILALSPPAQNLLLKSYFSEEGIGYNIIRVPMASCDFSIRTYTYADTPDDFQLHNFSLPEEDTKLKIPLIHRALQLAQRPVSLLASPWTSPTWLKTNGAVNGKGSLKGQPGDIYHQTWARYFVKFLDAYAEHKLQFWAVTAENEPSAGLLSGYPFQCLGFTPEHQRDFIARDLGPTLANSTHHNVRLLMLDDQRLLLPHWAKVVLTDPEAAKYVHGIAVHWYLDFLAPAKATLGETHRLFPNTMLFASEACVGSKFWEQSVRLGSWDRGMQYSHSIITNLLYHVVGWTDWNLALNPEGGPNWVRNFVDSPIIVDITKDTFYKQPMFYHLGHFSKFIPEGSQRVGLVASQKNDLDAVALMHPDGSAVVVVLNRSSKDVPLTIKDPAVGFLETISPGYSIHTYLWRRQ

[7] = molecular target: T1, Tyrosine-protein phosphatase non-receptor type 7 (Homo sapiens, UniProt P35236); type: functional
T1 sequence (P35236 whole entry): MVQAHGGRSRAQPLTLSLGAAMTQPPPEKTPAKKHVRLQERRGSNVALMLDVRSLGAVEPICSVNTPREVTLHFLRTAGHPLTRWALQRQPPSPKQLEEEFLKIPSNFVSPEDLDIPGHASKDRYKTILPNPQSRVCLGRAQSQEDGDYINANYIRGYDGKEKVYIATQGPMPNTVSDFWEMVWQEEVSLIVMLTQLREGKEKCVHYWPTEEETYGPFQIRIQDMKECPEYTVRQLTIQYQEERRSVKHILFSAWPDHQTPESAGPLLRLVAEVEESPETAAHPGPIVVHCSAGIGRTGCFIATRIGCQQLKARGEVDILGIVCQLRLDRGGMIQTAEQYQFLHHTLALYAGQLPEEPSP

[8] = molecular target: Glyceraldehyde-3-phosphate dehydrogenase (Homo sapiens, UniProt P04406)
Glyceraldehyde-3-phosphate dehydrogenase, sequence (P04406 whole entry): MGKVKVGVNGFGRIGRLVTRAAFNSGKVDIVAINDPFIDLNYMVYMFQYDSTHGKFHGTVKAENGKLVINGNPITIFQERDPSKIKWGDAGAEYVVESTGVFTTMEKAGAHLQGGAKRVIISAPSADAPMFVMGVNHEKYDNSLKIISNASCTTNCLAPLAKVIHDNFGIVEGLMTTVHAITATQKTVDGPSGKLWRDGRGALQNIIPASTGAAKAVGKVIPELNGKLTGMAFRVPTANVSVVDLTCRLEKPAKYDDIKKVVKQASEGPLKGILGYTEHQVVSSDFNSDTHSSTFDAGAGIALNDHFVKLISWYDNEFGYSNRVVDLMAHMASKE

[9] = molecular target: T2, Dual specificity protein phosphatase 6 (Rattus norvegicus, UniProt Q64346)
T2 sequence (Q64346 whole entry): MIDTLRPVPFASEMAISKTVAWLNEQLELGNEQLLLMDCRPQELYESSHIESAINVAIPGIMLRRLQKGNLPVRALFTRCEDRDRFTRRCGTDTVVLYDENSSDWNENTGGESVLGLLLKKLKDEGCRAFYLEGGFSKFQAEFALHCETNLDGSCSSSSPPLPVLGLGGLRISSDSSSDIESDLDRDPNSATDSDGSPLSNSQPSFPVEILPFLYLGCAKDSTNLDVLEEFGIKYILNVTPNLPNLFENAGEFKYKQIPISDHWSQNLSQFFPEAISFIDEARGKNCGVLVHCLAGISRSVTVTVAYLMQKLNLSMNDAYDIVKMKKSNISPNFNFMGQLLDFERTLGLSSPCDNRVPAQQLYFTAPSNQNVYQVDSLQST

[10] = molecular target: T2, Dual specificity protein phosphatase 6; type: functional
[11] = system: Streptococcus sp. 'group A'; test: growth inhibition of control SK(-) GAS strain, dose response, counter-screen for streptokinase expression inhibitor project, luminescence, kanamycin, BacTiterGlo, confirmation (AID 1900); type: functional, organism-based
HEK293 [12] = test: Fluorescence-based counterscreen for potentiators or agonists of NPY-Y1: cell-based high-throughput dose response assay for inhibitors of cyclic nucleotide gated ion channel (CNGC) activity. In this assay, the parental HEK293 cell line transfected with a cyclic-nucleotide gated ion channel (CNGC)-based cAMP sensor is used to measure inhibition of isoproterenol-induced CNGC …; type: functional; conditions: Homo sapiens
Streptococcus = test: Group A Streptococcus viability loss, dose response, counter-screen for streptokinase expression inhibitor project, luminescence, BacTiterGlo (AID 1915); type: functional, organism-based;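 note: potency for reduction of bacterial viability or growth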

SMILES: Brc1ccc(-c2noc(COc3ccc4c(c3)CCC4)n2)o1
- AC50 (HeLa): 337 µM (active)

SMILES: CN(C)c1ncnc2c1ncn2[C@@H]1OC(CO)C(O)C1O (some centres undefined)
- EC50 (HEK293 [1]): 1.85 µM (active)
- EC50 [2]: > 8 µM (not active)
- EC50 (HEK293 [3]): > 8 µM (not active)
- EC50 (HEK293 [4]): 12.2 µM (inactive)
- EC50 (HEK293 [5]): > 8 µM (not active)

- EC50 [6]: > 50 µM (not active)
SMILES: CCOC(=O)c1oc2c(C)c(O)ccc2c(=O)c1-c1nncn1-c1ccccc1

- IC50 [7]: > 100 µM (not active)
- IC50 [8]: > 100 µM (not active)
- IC50 [9]: > 100 µM (inactive)
- IC50 [10]: > 100 µM (inactive)
SMILES: CCn1c(=O)n(CC)c(=O)n([C@@H](Cc2ccccc2)C(=O)O)c1=O

SMILES: CCOc1ccc(NC(S)=NN=C(S)Nc2cccc(C(F)(F)F)c2)cc1
- EC50 [11]: 24.4 µM (active)
- IC50 (HEK293 [12]): > 35.4 µM (not active)
- EC50 (Streptococcus): > 150 µM (not active)
